From patent publication US20250288553A1, “Antimicrobial Compositions and Uses for Treatment of Clostridioides difficile, Mycobacterium tuberculosis, and Enterococcus faecalis Infection” (priority 2022, published 2025)
Converted amounts (≈) assume the structure as drawn.

How the values were obtained:
active Mtb = conditions: earlier screen (ref 12); cited from earlier work
dormant Mtb = conditions: earlier screen (ref 12); cited from earlier work
Mtb = conditions: at a concentration of 12.5 μg/mL; cited from earlier work
[1] = test system: dormant Mtb-lux (Mycobacterium tuberculosis CDC1551 with pMV306hsp+LuxG13); assay type: cell-based; conditions: for R/D (MICR/MICD, Mtb-lux): ratio replicating MIC to dormant MIC
Cytotoxicity assay HepG2 = conditions: human
[2] = test system: HepG2 (human liver carcinoma) cell line; assay: Cytotoxicity assay HepG2
[3] = test system: Clostridioides difficile NAP1; assay: MIC against C. difficile NAP1, modified broth microdilution; conditions: for MIC C. difficile: NAP1, modified broth microdilution, 48 h, anaerobic
[4] = test system: replicating Mtb-lux (Mycobacterium tuberculosis CDC1551 with pMV306hsp+LuxG13); assay type: cell-based
[5] = test system: Mycobacterium tuberculosis H37Ra ATCC 25177; assay: MIC against Mtb H37Ra, resazurin microtiter assay (REMA); assay type: cell-based; conditions: Mycobacterium tuberculosis, 336 h, determined visually by REMA assay, 14-day incubation; read-out: MIC Mtb H37Ra
[6] = test system: M. smegmatis mc^2155 ATCC 700084; assay: MIC against M. smegmatis, REMA; assay type: cell-based, Mycobacterium smegmatis; conditions: Mycolicibacterium smegmatis, ATCC700084|MC^2155; determined visually by REMA assay, 24-hour incubation
[7] = Cytotoxicity assay J774A.1; assay type: cell-based, murine; conditions: mouse, J774A.1 macrophage-like cells; J774A.1 cells; read-out: Cytotoxicity (IC50) J774
Protocol: (§1) To evaluate the selectivity of the top six compounds from the Mtb-lux activity screen (Table 2), cytotoxicity for two different mammalian cell lines was determined. The IC50 was calculated for each compound against J774A.1 and HepG2 cell lines. The selectivity index (SI) for both replicating and dormant conditions was then calculated by taking the IC50 and dividing it by the corresponding MIC (SIR=IC50/MICR, SID=IC50/MICD)^40. Consistent with the experience, the J774 macrophage cell line was more sensitive to all compounds tested. […] Based on these observations, this triacetate protected puupehenone represents a promising candidate for further optimization.
(§2) Cytotoxicity assay: Cytotoxicity was assessed using J774A.1 (murine macrophage-like) and HepG2 (human liver carcinoma) cell lines using 2-fold dilution of the compounds as described previously^42, 43. IC50 values were determined using nonlinear regression fitting of the databy GraphPad Prism. The selectivity Index (SI) was calculated as IC50/MIC.

[8] = test system: J774A.1 (murine macrophage-like) cell line; assay: Cytotoxicity assay J774A.1; assay type: cell-based
Protocol: as §1, §2

[9] = test system: TcdA production in C. difficile NAP1; assay: Toxin analysis: extracellular TcdA of C. difficile NAP1 at sub-MICs, western blot; assay type: cell-based, Clostridioides difficile; conditions: NAP1 challenged with 0.5×, 0.25×, 0.125× MIC, 48 h, TcdA normalized to total protein
Protocol: After a 48 h incubation of NAP1 challenged with several dilutions of each compound, extracellular toxin in spent media derived from triplicate cultures was assessed with western blots using a monoclonal antibody against TcdA. Semi-quantitative analysis of toxin levels was performed via densitometry of TcdA band intensity with respect to total protein as measured by the Bradford assay. Semi-quantitative plots are shown below each representative blot. (a) Toxin production in BHIS (NAP1) and BHIS with 5% DMSO (vehicle). (b) Toxin production from cultures challenged with sub-MICs of fidaxomicin, (c) vancomycin, and (d-j) (+)-puupehenone and selected derivatives. Data points represent the means of adjusted toxin levels derived from triplicate cultures, while error bars represent standard deviations. Statistical analysis was performed in GraphPad Prism 8 using unpaired t-tests. *P<0.05; **P<0.01.
To account for changes in biomass, a semi-quantitative analysis of TcdA production was performed by normalizing the target bands from representative western blots to the amount of total protein in each sample.
Toxin analysis. Toxin production was determined by analyzing the amount of extracellular toxin in the cultures from the ASTs described above. At 48 h, total protein of each culture was determined with the Bradford assay using bovine serum albumin (BSA) as a standard.^53 Cultures were then centrifuged at 5,000×g for 5 minutes to clear the supernatants which were separately collected and frozen at −20° C. After thawing at room temperature, cell-free supernatants were mixed 1:1 with 2× Laemmli buffer and incubated in a sand bath at 100° C. for 5 minutes. Twenty microliters of denatured samples were loaded onto 7.5% Tris-glycine gels and electrophoresed at 200 V for 1 h. After electrophoresis, samples were transferred to polyvinylidene difluoride membranes at 4° C. overnight at 30 V. Membranes were incubated in a blocking buffer (20 mM Tris-HCl, 150 mM NaCl, 0.01 mM ethylenediaminetetraacetic acid, 0.1% Tween 20, 1% BSA, [pH 7.5]) for 1 h at room temperature. TcdA was detected with a monoclonal mouse anti-TcdA antibody (PCG4.1, Novus Biologicals) and a rabbit anti-mouse antibody conjugated with alkaline phosphatase. Blots were visualized with a ChemiDoc XRS+ imaging system (Bio-Rad).
Semi-quantitative analysis of TcdA was performed using Image Lab 6.0 software (Bio-Rad). Briefly, after subtracting background noise, peaks corresponding to the target band were selected with the software's Lane Profile tool. The density of each peak generated a value (arbitrary units) that was normalized to the total protein amount of each respective sample. […] These losses of activity prevented us from performing statistical analysis from multiple experiments, as the sub-MICs were not always the same. Since there were no changes to the methodology described, several other reasons could have accounted for decreased activity, such as compound stability, freeze-thaw, and adherence to plastic. Nevertheless, the toxin results were reproducible, irrespective of the exact sub-MICs on different days.

[10] = test system: Staphylococcus aureus ATCC 25923; assay: MIC against S. aureus, REMA; conditions: visual, 24 h
[11] = test system: Bacillus subtilis ATCC 23857; assay: MIC against B. subtilis, REMA; conditions: REMA, visual, 24 h
[12] = test system: Enterococcus faecalis ATCC 29212; assay: MIC against E. faecalis, REMA; conditions: REMA, visual, 24 h

Row | SMILES | MIC against active Mtb (active Mtb) [µg/mL] | MIC in multistress dormancy model of Mtb (dormant Mtb) [µg/mL] | inhibition of Mtb (Mtb) [%] | MICD (Mtb-lux) [1] [µg/mL] | R/D (MICR/MICD, Mtb-lux) [1] | MIC C. difficile [3] [µg/mL] | MICR (Mtb-lux) [4] [µg/mL] | Effect on TcdA toxin production [9] | other results
1 | CC1(C)CCC[C@]2(C)C3=CC4=CC(=O)C(=O)C=C4O[C@@]3(C)CC[C@@H]12 [Compound 2, Puupehedione] | 87.6 (≈ 268 µM) | 15.4 |  |  |  |  |  |  | 
2 | CO[C@@H]1c2cc(O)c(O)cc2O[C@@]2(C)CCC3C(C)(C)CCC[C@]3(C)[C@@H]12 (stereo partly drawn) [Compound 3, 15-α-methoxypuupehenol] | 11.3 (≈ 31.3 µM) | 0.5 |  |  |  |  |  |  | 
3 | CC1(C)CCC[C@]2(C)[C@H]3[C@H](C#N)c4cc(O)c(O)cc4O[C@@]3(C)CC[C@@H]12 [Compound 4, 15-α-cyanopuupehenol] |  |  | 96 |  |  |  |  |  | 
4 | CC1(C)CCC[C@]2(C)[C@H]3C(C#N)=C4C=C(O)C(=O)C=C4O[C@@]3(C)CC[C@@H]12 [Compound 5, 15-cyanopuupehenone] |  |  | 90 |  |  |  |  |  | 
5 | CO[C@@H]1c2cc(OC(C)=O)c(OC(C)=O)cc2O[C@@]2(C)CC[C@H]3C(C)(C)CCC[C@]3(C)[C@@H]12 [Compound 15] |  |  |  | 1.7 | 5.2 | 4.0 (≈ 9 µM) | 8.9 | decreased the amount of toxin in a similar concentration-dependent manner | IC50 (Cytotoxicity assay HepG2): ~107 µM; SI (SID) HepG2 [2]: 62.9; SI (SIR) HepG2 [2]: 12.0; MIC ([3]; Clostridioides difficile, NAP1, 48 h, read-out: MIC C. difficile, NAP1, modified broth microdilution, 48 h, anaerobic): 2 to 4 µg/mL (≈ 4.5 to 9 µM); MIC [5]: 2.7 µg/mL (≈ 6.07 µM); MIC [6]: 22.2 µg/mL (≈ 49.9 µM); IC50 [7]: 59.1 µM; SI (SID) J774 [8]: 34.8; SI (SIR) J774 [8]: 6.6
6 | CC1(C)CCCC2(C)C1CCC(C)(O)C2Cc1ccc(O)cc1 (stereo not shown) [Compound 34] |  |  |  | 30.9 | 3.7 | 16.0 (≈ 50.6 µM) | 114.3 | decreased the amount of toxin in a similar concentration-dependent manner | MIC S. aureus [10]: 16.9 µg/mL (≈ 53.4 µM); MIC B. subtilis [11]: 7.9 µg/mL (≈ 25 µM); MIC E. faecalis [12]: 15.8 µg/mL (≈ 49.9 µM)
